The subject of assay [1] is BW25113. The settings on record: phenol at 50-75% of the MIC in LB at 37° C.; cited from earlier work.
The subject of the next assay is E. coli KO11. Particulars: cited from earlier work.
The test system of assay [2] is BW25113. The settings on record: 10 vol % hexane in LB at 37° C.; cited from earlier work.
In assay [3] the test system is E. coli MG1655. The experiment in a line: Octanoic acid tolerance characterization (specific growth rate). It is filed as cell-based. How it is done: 2.2 Strain Tolerance Characterization: Octanoic acid tolerance was characterized in 50 ml MOPS defined minimal medium with 2.0% (wt/v) dextrose and 10 mM octanoic acid (1.44 g/L) in 250 ml baffled flasks at 220 rpm and initial pH at 7.0, 30° C. MOPS media contains the following: 8.37 g/L 3-(N-morpholino)propanesulfonic acid (MOPS), 0.72 g/L tricine, 2.92 g/L NaCl, 0.51 g/L NH4Cl, 1.6 g/L KOH, 50 mg/L MgCl2, 48 mg/L K2SO4, 348 mg/L K2HPO4, 0.215 mg/L Na2SeO3, 0.303 mg/L Na2MoO4.2H2O, 0.17 mg/L ZnCl2, 2.5 μg/L FeCl2.4H2O, 0.092 μg/L CaCl2.2H2O, 0.031 μg/L H3BO3, 0.020 μg/L MnCl2.4H2O, 0.0090 μg/L CoCl2.4H2O, and 0.0020 μg/L CuCl2.4H2O [43, 44]. Specific growth rate μ (h-1) was calculated by fitting the equation OD=OD0e^μt over the duration of the exponential growth phase. […] Dry cell weight (DCW) was calculated from the optical density at 550 nm (1 OD550=0.333 g DCW/L).

In assay [4] the test system is E. coli MG1655. The experiment in a line: Membrane integrity (SYTOX Green, flow cytometry) during C8 challenge. It is filed as cell-based. How it is done:
Membrane Integrity Characterization: Cells were centrifuged, washed twice, and then resuspended in PBS buffer (pH 7.0) at a final OD550 of ˜1. One hundred microliter (100 μl) of this suspension was mixed with 900 μl of PBS buffer and SYTOX Green (Invitrogen) was added to a final concentration of 5.0 μM. After resting at room temperature for 15 minutes, cells were analyzed by a BD Biosciences FACSCanto II flow cytometer equipped with standard factory-installed 488 nm excitation laser, signal collection optics, and fluorescence emission filter configuration. Instrument sheath fluid was filtered (0.22 μm) PBS buffer. Green fluorescence from stained cells was collected in the FL1 channel (525/50 nm). Forward scatter (FSC), side scatter (SSC), and FL1 (Green) parameters were collected as logarithmic signals. All data collections were performed at low flow rate setting (˜12 μl/min) and cell concentrations were such that the event rate was below 5,000 events/s. All samples were analyzed immediately after staining. Background noise and small debris was eliminated from data collection via a side scatter signal threshold that was established by examining samples containing only SYTOX Green staining buffer. Bacteria in SYTOX Green-stained samples were readily identified on the basis of FSC and SSC signals and an appropriate “Cell” gate was drawn to limit FL1 analysis to bacteria and exclude non-cell events. A minimum of 20,000 cell-gated events were collected for each sample. Green fluorescence data for these “cell” events were plotted as histograms showing the signal distribution of bacteria in the sample [14]. Flow cytometry data for this work is available via Flow Repository (https://flowrepository.org) (FR-FCM-ZY2B).

Assay [5] has as its system E. coli MG1655. The settings on record: 40 mM; cited from earlier work.
In another assay the test system is E. coli BW25113. Particulars: up to 20 mM C8, pH 7.0, 37° C.; cited from earlier work.
A further assay relates to E. coli Frag1. The settings on record: 8 mM acetate; cited from earlier work.
The test system of the next assay is E. coli LY01. Particulars: cited from earlier work.

“And” between values parts separate entries of the source, which are not always exact repeats. Equal entries are not always repeated.

On to `Oc1ccccc1` [Phenol], for which the “survival on deletion of fadL” value in the assay with BW25113 [1] is on record as “Deletion of fadL from BW25113 had no impact on survival”.

With `CCO` [ethanol], in the assay on E. coli KO11 (35 g/L ethanol, engineered E. coli KO11), the growth result was “grows poorly”. In addition, in the assay on E. coli KO11 (100 g/L ethanol, KO11), the cells surviving challenge result is “less than 10%”.

Take `CCCCCC` [Hexane]: the “survival (assessed by OD) on deletion of fadL” value with BW25113 [2] was “Deletion of fadL from BW25113 increased survival, as assessed by OD”.

For the compound `CCCCCCCC(=O)O` [C8, octanoic acid], the specific growth rate with E. coli MG1655 [3] (10 mM C8, strain Gen-empty) is 0.31 h⁻¹; with E. coli MG1655 [3] (10 mM C8, strain Gen-fadL), 0.33 h⁻¹; in the assay with E. coli MG1655 [3] (10 mM C8, strain MG1655, MOPS+2% dextrose, 30° C., initial pH 7.0), 0.31 h⁻¹; with E. coli MG1655 [3] (10 mM C8, strain Pla-empty), 0.31 h⁻¹; in the assay on E. coli MG1655 [3] (10 mM C8, strain Pla-fadL) it was 0.33 h⁻¹ and 0.32 h⁻¹; in the assay on E. coli MG1655 [3] (10 mM C8, strain ΔfadL), 0.27 h⁻¹. Also, in the assay with E. coli MG1655 [3] (10 mM C8, strain ΔompF+Pla-fadL), the specific growth rate is 0.36 h⁻¹. For the same compound, the “specific growth rate, higher than control” value in the assay on E. coli MG1655 [3] (10 mM C8, ΔompF+Pla-fadL vs Pla-empty) is given as 18%; in the assay with E. coli MG1655 [3] (C8 challenge, Gen-fadL vs Gen-empty), 7%; in the assay with E. coli MG1655 [3] (C8 challenge, Pla-fadL vs Pla-empty), 8%. Besides, in the assay with E. coli MG1655 [3] (10 mM C8, ΔompF+Pla-fadL vs Pla-fadL), the “specific growth rate, higher than individual increased expression of fadL” value was found to be 12%. Further, the “specific growth rate, higher than individual deletion of ompF” value with E. coli MG1655 [3] (10 mM C8, ΔompF+Pla-fadL vs ΔompF+Pla-empty) was 10%. In addition, in the assay with E. coli MG1655 [3] (C8 challenge, ΔfadL vs MG1655), the “specific growth rate, lower than MG1655” value came out at 12%. The “specific growth rate, higher than MG1655” value in the assay with E. coli MG1655 [3] (C8 challenge, ΔompF vs MG1655) is 7%. Besides, the “increase in membrane integrity” value in the assay on E. coli MG1655 [4] (10 mM C8, Gen-fadL vs Gen-empty) is on record as 14%; in the assay with E. coli MG1655 [4] (10 mM C8, Pla-fadL vs Pla-empty), 25%. Further, the “percentage of cells with intact membranes, lower than MG1655” value in the assay on E. coli MG1655 [4] (10 mM C8, ΔfadL vs MG1655) came to 23%. Moreover, the “increase in percentage of cells with intact membranes” value in the assay on E. coli MG1655 [4] (10 mM C8, ΔompF vs wild-type control strain) amounted to 18%; in the assay on E. coli MG1655 [4] (C8 challenge, ΔompF+Pla-fadL vs Pla-empty), 37%. The growth inhibition result in the assay with E. coli MG1655 [5] is “completely inhibitory”. Besides, the “magnitude of intracellular acidification on deletion of ompF” value with E. coli BW25113 is given as “assessed via the maximum OD. Deletion of ompF decreased the magnitude”.

For the compound `CCCCCC(=O)O` [hexanoic acid], the growth inhibition entry with E. coli MG1655 [5] is listed as “completely inhibitory”.

In the case of `CC(=O)O` [acetate], the “reduction of specific growth rate” value in the assay on E. coli Frag1 is listed as 50%.

With `O=Cc1ccco1` [Furfural], the “concentration that inhibits growth completely” value in the assay on E. coli LY01 is 3.5 g/L.
